In patent publication US10501464B2, “7-oxo-6-(sulfooxy)-1,6-diazabicyclo[3.2.1]octane-2-carboxamide containing compounds and their use in treating bacterial infections” (WOCKHARDT LIMITED, priority 2015, dated 2019) one finds MIC data, which are given here for three compounds.

As a reminder, the MIC is the least concentration at which growth counts as inhibited.

Read-outs that look alike come from different tables or passages of the source.

Holding throughout (test): Antibacterial activity, MIC by agar dilution (CLSI)
Holding throughout (assay type): cell-based
A general note: Agar dilution tests growth on a series of plates holding different concentrations.

In test [1] the test system is E. coli M 50. The conditions noted are these: compound tested alone. In a few lines: (§1)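 Agar dilution on Mueller Hinton agar with doubling compound dilutions per CLSI, about 10^4 CFU/spot by multipoint inoculator. Plates incubated 16-20 h at 35±2 °C in ambient air (also given as 37 °C or 35 °C for 18 h); MIC read as growth/no growth.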
Test [2] relates to E. coli 7 MP. The conditions noted are these: compound tested alone. The procedure, abridged: as §1
Test [3] has as its system E. coli 13352. The conditions noted are these: compound tested alone. The procedure, abridged:
as §1

Test [4] deals with K. pneumoniae ATCC 700603. The procedure, abridged:
as §1

Test [5] relates to E. coli 13351. The conditions noted are these: compound tested alone. In a few lines: as §1
Test [6] concerns E. coli H 483. The procedure, abridged:
as §1

Test [7] has as its system E. coli 13353. The conditions noted are these: compound tested alone. In a few lines:
as §1

In test [8] the test system is E. coli M 36. The conditions noted are these: compound tested alone. The procedure, abridged: as §1
Test [9] concerns E. coli M 138. The conditions noted are these: compound tested alone. The procedure, abridged:
as §1

In test [10] the test system is K. pneumoniae H 523. The conditions noted are these: compound tested alone. In a few lines:
as §1

In test [11] the test system is P. mirabilis S 137B. The conditions noted are these: compound tested alone. In a few lines:
as §1

The test system of test [12] is E. coli M 49. The conditions noted are these: compound tested alone. The procedure, abridged:
as §1

The subject of test [13] is K. pneumoniae H 521. The conditions noted are these: compound tested alone. The procedure, abridged:
as §1

The subject of test [14] is K. pneumoniae H 522. The conditions noted are these: compound tested alone. The procedure, abridged: as §1
For test [15], the system named is K. pneumoniae H 525. The conditions noted are these: compound tested alone. In a few lines:
as §1

Setting [16] is: Escherichia coli, M50, E. coli M 50, read-out: MIC.
Where [17] appears, read: Escherichia coli, 7MP, read-out: MIC.
The mark [18] stands for this setting: Escherichia coli, 13352, E. coli 13352, read-out: MIC.
Where [19] appears, read: Klebsiella pneumoniae, ATCC700603, compound tested alone, read-out: MIC.
The mark [20] stands for this setting: Escherichia coli, 13351, E. coli 13351, read-out: MIC.
[21] abbreviates: Escherichia coli, H483, compound tested alone, read-out: MIC.
Setting [22] is: Escherichia coli, 13353, E. coli 13353, read-out: MIC.
The mark [23] stands for this setting: Escherichia coli, M36, E. coli M 36, read-out: MIC.
Setting [24] is: Escherichia coli, M138, E. coli M 138, read-out: MIC.
Where [25] appears, read: Klebsiella pneumoniae, H523, K. pneumoniae H 523, read-out: MIC.
Where [26] appears, read: Proteus mirabilis, S137B, read-out: MIC.
The mark [27] stands for this setting: Escherichia coli, M49, E. coli M 49, read-out: MIC.
Setting [28] is: Klebsiella pneumoniae, H521, K. pneumoniae H 521, read-out: MIC.
[29] abbreviates: Klebsiella pneumoniae, H522, K. pneumoniae H 522, read-out: MIC.
[30] abbreviates: Klebsiella pneumoniae, H525, K. pneumoniae H 525, read-out: MIC.

Consider `O=C(NOC[C@@H]1C[C@H](n2ccnc2)CN1)[C@@H]1CC[C@@H]2CN1C(=O)N2OS(=O)(=O)O` [Example 10], for which the MIC in test [1] (setting [16]) is 1 µg/mL; in test [2] (setting [17]), 4 µg/mL; in test [3] (setting [18]) it was 2 µg/mL; in test [4] (setting [19]), > 32 µg/mL; in test [5] (setting [20]), 2 µg/mL; in test [6] (setting [21]) it was > 32 µg/mL. Further, the MIC in test [7] (setting [22]) is 1 µg/mL; in [8] (setting [23]), 1 µg/mL; in test [9] (setting [24]) it was 1 µg/mL; in [10] (setting [25]) it was 2 µg/mL; in test [11] (setting [26]) it was > 32 µg/mL; in test [12] (setting [27]) it was 4 µg/mL. Besides, the MIC in test [13] (setting [28]), in [14] (setting [29]) and in test [15] (setting [30]) was 2 µg/mL throughout.
Regarding `CC(C)(O/N=C(\C(=O)N[C@@H]1C(=O)N2C(C(=O)[O-])=C(C[n+]3ccccc3)CS[C@H]12)c1csc(N)n1)C(=O)O` [Ceftazidime, reference compound], the MIC was >32 µg/mL in test [1] (E. coli M 50); >32 µg/mL in [2]; >32 µg/mL in test [3] (E. coli 13352); 16 µg/mL in [4] (compound tested alone); 16 µg/mL in test [5] (E. coli 13351); >32 µg/mL in [6] (compound tested alone). Moreover, the MIC in [7] (E. coli 13353), in test [8] (E. coli M 36), in test [9] (E. coli M 138), in test [10] (K. pneumoniae H 523), in test [11] and in [12] (E. coli M 49) was >32 µg/mL throughout. Also, the minimal inhibitory concentration (MIC) in test [13] (K. pneumoniae H 521), in [14] (K. pneumoniae H 522) and in test [15] (K. pneumoniae H 525) was >32 µg/mL throughout.
Consider `O=C(NOC[C@H]1C[C@H](n2ccnn2)CN1)[C@@H]1CC[C@@H]2CN1C(=O)N2OS(=O)(=O)O` [Example 14], for which the MIC in test [1] (setting [16]) was 2 µg/mL; in test [2] (setting [17]), 4 µg/mL; in test [3] (setting [18]) it was 4 µg/mL; in [4] (setting [19]), > 32 µg/mL; in [5] (setting [20]), 4 µg/mL; in [6] (setting [21]), > 32 µg/mL. Further, the MIC in test [7] (setting [22]) was 2 µg/mL; in test [8] (setting [23]), 2 µg/mL; in [9] (setting [24]) it was 2 µg/mL; in [10] (setting [25]) it was 4 µg/mL; in [11] (setting [26]) it was > 32 µg/mL; in [12] (setting [27]), 8 µg/mL. For the same compound, the MIC in [13] (setting [28]), in [14] (setting [29]) and in test [15] (setting [30]) was 4 µg/mL in each case.
